Measurements reported in the supplement of paper PMC11061612.

Tests used:
Assay in all cases: Bliss excess, mean over the matrix (fraction); higher = more synergy
[1] = system: SAS (Oral Cavity Carcinoma)
Method in brief: (§1)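 Bliss excess equals the observed combination effect minus the expected value EA + EB − EA·EB, where EA and EB are the effects of each agent alone. Combination Emax is the second-highest inhibition within the matrix. Inhibition was scaled from CellTiter-Glo 2.0 luminescence, with 0 set by vehicle wells and 1 by blank wells, after 72 hours of two-drug dosing of cells plated in 1536-well plates.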

[2] = system: SNU-449 (Hepatocellular Carcinoma)
Method in brief: as §1

[3] = system: Hs-746T (Gastric Carcinoma)
Method in brief: as §1

[4] = system: LS-123 (Colorectal Carcinoma)
Method in brief: as §1

MPP-89 (Mesothelioma) = system: MPP-89 (Mesothelioma)
Method in brief: as §1

[5] = system: TGBC1TKB (Biliary Tract Carcinoma)
Method in brief: as §1

[6] = system: NCI-H524 (Small Cell Lung Carcinoma)
Method in brief: as §1

[7] = system: OE21 (Esophageal Squamous Cell Carcinoma)
Method in brief: as §1

BE2-M17 (Neuroblastoma) = system: BE2-M17 (Neuroblastoma)
Method in brief: as §1

[8] = system: WSU-NHL (B-Cell Non-Hodgkin's Lymphoma)
Method in brief: as §1

| SMILES | Bliss excess [1] | Bliss excess [2] | Bliss excess [3] | Bliss excess [4] | Bliss excess (MPP-89 (Mesothelioma)) | Bliss excess [5] | Bliss excess [6] | Bliss excess [7] | Bliss excess (BE2-M17 (Neuroblastoma)) | Bliss excess [8] |
| --- | --- | --- | --- | --- | --- | --- | --- | --- | --- | --- |
| CC1(C)CCC(CN2CCN(c3ccc(C(=O)NS(=O)(=O)c4ccc(NCC5CCOCC5)c([N+](=O)[O-])c4)c(Oc4cnc5[nH]ccc5c4)c3)CC2)=C(c2ccc(Cl)cc2)C1 [Venetoclax] + C[C@@H](Nc1cc(F)cc(F)c1)c1cc(C(=O)N(C)C)cc2c(=O)cc(N3CCOCC3)oc12 [AZD8186] (first compound max 1 µM, 7x7, partner max 3 µM) | -0.0332 | -0.0583 | -0.004 | 0.0135 | -0.0096 | -0.0558 | -0.009 | -0.0166 | -0.0069 | 0.0209 |
| Cc1c2c(nn1C)CSCc1cc(n(C)n1)CSc1cc(c3ccccc3c1)OCCCc1c(C(=O)O)n(C)c3c-2c(Cl)ccc13 [AZD5991] + Cn1cnc2c(F)c(Nc3ccc(Br)cc3Cl)c(C(=O)NOCCO)cc21 [Selumetinib] (first compound max 1 µM, 7x7, partner max 3 µM) | 0.0248 | -0.0846 | -0.018 | 0.0196 | -0.0188 | -0.0181 | -0.0129 | 0.0286 | 0.0436 | -0.0489 |
| NC1(C(=O)N[C@@H](CCO)c2ccc(Cl)cc2)CCN(c2ncnc3[nH]ccc23)CC1 [Capivasertib] + Cn1cnc2c(F)c(Nc3ccc(Br)cc3Cl)c(C(=O)NOCCO)cc21 [Selumetinib] (first compound max 10 µM, 7x7, partner max 10 µM) | 0.0089 | -0.0113 | 0.0736 | 0.0583 | -0.0188 | 0.0729 | 0.0158 | 0.0761 | 0.0158 | 0.0544 |
| NC1(C(=O)N[C@@H](CCO)c2ccc(Cl)cc2)CCN(c2ncnc3[nH]ccc23)CC1 [Capivasertib] + CC(C)n1c(=O)n(C)c2cnc3cc(F)c(-c4ccc(OCCCN5CCCCC5)nc4)cc3c21 [AZD1390] (first compound max 10 µM, 7x7, partner max 0.3 µM) | -0.036 | -0.038 | -0.0445 | -0.0493 | -0.0069 | 0.004 | -0.0033 | -0.0474 | -0.115 | -0.0418 |
| NC1(C(=O)N[C@@H](CCO)c2ccc(Cl)cc2)CCN(c2ncnc3[nH]ccc23)CC1 [Capivasertib] + C[C@@H]1COCCN1C2=NC(=NC(=C2)C3(CC3)[S@](=N)(=O)C)C4=C5C=CNC5=NC=C4 [AZD6738] (first compound max 10 µM, 7x7, partner max 10 µM) | -0.0308 | -0.0057 | -0.0747 | 0.0058 | -0.0166 | -0.005 | -0.0086 | -0.0499 | -0.0034 | -0.05 |
| COc1nnc2ccc(N3CCC(c4ccc(OCCN5CCN(C)C(=O)[C@H]5C)cc4)CC3)nn12 [AZD5153] + CC1(C)CCC(CN2CCN(c3ccc(C(=O)NS(=O)(=O)c4ccc(NCC5CCOCC5)c([N+](=O)[O-])c4)c(Oc4cnc5[nH]ccc5c4)c3)CC2)=C(c2ccc(Cl)cc2)C1 [Venetoclax] (first compound max 1 µM, 7x7, partner max 1 µM) | -0.0325 | -0.0308 | -0.119 | 0.0205 | -0.0166 | 0.0071 | -0.037 | -0.0352 | 0.0308 | 0.0355 |
| COc1nnc2ccc(N3CCC(c4ccc(OCCN5CCN(C)C(=O)[C@H]5C)cc4)CC3)nn12 [AZD5153] + C=CCn1c(=O)c2cnc(Nc3ccc(N4CCN(C)CC4)cc3)nc2n1-c1cccc(C(C)(C)O)n1 [AZD1775] (first compound max 1 µM, partner max 1 µM) | -0.0302 | -0.0033 | -0.0556 | -0.0445 | -0.0669 | 0.015 | -0.0337 | -0.0497 | 0.0026 | -0.0255 |
| Cc1c2c(nn1C)CSCc1cc(n(C)n1)CSc1cc(c3ccccc3c1)OCCCc1c(C(=O)O)n(C)c3c-2c(Cl)ccc13 [AZD5991] + C=CCn1c(=O)c2cnc(Nc3ccc(N4CCN(C)CC4)cc3)nc2n1-c1cccc(C(C)(C)O)n1 [AZD1775] (first compound max 1 µM, partner max 1 µM) | -0.0144 | 0.0317 | -0.0096 | -0.0197 | -0.0732 | 0.0066 | -0.0274 | -0.0135 | -0.03 | -0.0459 |
| CC(=O)c1c(C)c2cnc(Nc3ccc(N4CCNCC4)cn3)nc2n(C2CCCC2)c1=O [Palbociclib] + CC1(C)CCC(CN2CCN(c3ccc(C(=O)NS(=O)(=O)c4ccc(NCC5CCOCC5)c([N+](=O)[O-])c4)c(Oc4cnc5[nH]ccc5c4)c3)CC2)=C(c2ccc(Cl)cc2)C1 [Venetoclax] (first compound max 10 µM, 7x7, partner max 1 µM) | 0.014 | -0.0153 | -0.0117 | -0.0324 | -0.0484 | -0.0385 | -0.0732 | 0.0309 | 0.0218 | -0.0137 |
| CS(=O)(=O)CCNCc1ccc(-c2ccc3ncnc(Nc4ccc(OCc5cccc(F)c5)c(Cl)c4)c3c2)o1 [Lapatinib] + C[C@@H](Oc1cc(-c2cnn(C3CCNCC3)c2)cnc1N)c1c(Cl)ccc(F)c1Cl [Crizotinib] (first compound max 10 µM, 7x7, partner max 10 µM) | -0.0346 | -0.0453 | 0.0079 | -0.0052 | -0.0762 | -0.0061 | -0.037 | 0.0006 | -0.0652 | -0.0515 |
| CC1(C)CCC(CN2CCN(c3ccc(C(=O)NS(=O)(=O)c4ccc(NCC5CCOCC5)c([N+](=O)[O-])c4)c(Oc4cnc5[nH]ccc5c4)c3)CC2)=C(c2ccc(Cl)cc2)C1 [Venetoclax] + C[C@@H]1COCCN1C2=NC(=NC(=C2)C3(CC3)[S@](=N)(=O)C)C4=C5C=CNC5=NC=C4 [AZD6738] (first compound max 1 µM, 7x7, partner max 10 µM) | 0.0194 | -0.0239 | -0.063 | -0.0395 | -0.0226 | -0.0517 | -0.0453 | -0.0357 | -0.0661 | -0.0913 |
| CC1(C)CCC(CN2CCN(c3ccc(C(=O)NS(=O)(=O)c4ccc(NCC5CCOCC5)c([N+](=O)[O-])c4)c(Oc4cnc5[nH]ccc5c4)c3)CC2)=C(c2ccc(Cl)cc2)C1 [Venetoclax] + COc1cc(Nc2ncc3c(n2)-c2ccc(Cl)cc2C(c2c(F)cccc2OC)=NC3)ccc1C(=O)O [Alisertib] (first compound max 1 µM, 7x7, partner max 10 µM) | -0.0842 | -0.0753 | 0.0096 | 0.0288 | -0.0556 | -0.0367 | -0.0902 | 0.0433 | 0.215 | -0.0521 |
| CC(=O)Nc1cccc(-n2c(=O)n(C3CC3)c(=O)c3c(Nc4ccc(I)cc4F)n(C)c(=O)c(C)c32)c1 [Trametinib] + Cc1nc(-c2cn3c(n2)-c2ccc(-c4cnn(C(C)(C)C(N)=O)c4)cc2OCC3)n(C(C)C)n1 [Taselisib] (first compound max 1 µM, 7x7, partner max 10 µM) | 0.145 | -0.0432 | 0.0172 | 0.0939 | 0.103 | 0.0385 | -0.112 | 0.147 | 0.107 | 0.0079 |
| CC1(C)CCC(CN2CCN(c3ccc(C(=O)NS(=O)(=O)c4ccc(NCC5CCOCC5)c([N+](=O)[O-])c4)c(Oc4cnc5[nH]ccc5c4)c3)CC2)=C(c2ccc(Cl)cc2)C1 [Venetoclax] + CCN(CCO)CCCOc1ccc2c(Nc3cc(CC(=O)Nc4cccc(F)c4)[nH]n3)ncnc2c1 [AZD2811] (first compound max 1 µM, 7x7, partner max 1 µM) | 0.009 | -0.0642 | -0.0383 | -0.0437 | -0.0093 | -0.0225 | -0.0074 | 0.0005 | 0.107 | -0.0879 |
| CC1(C)CCC(CN2CCN(c3ccc(C(=O)NS(=O)(=O)c4ccc(NCC5CCOCC5)c([N+](=O)[O-])c4)c(Oc4cnc5[nH]ccc5c4)c3)CC2)=C(c2ccc(Cl)cc2)C1 [Venetoclax] + Cn1cnc2c(F)c(Nc3ccc(Br)cc3Cl)c(C(=O)NOCCO)cc21 [Selumetinib] (first compound max 1 µM, 7x7, partner max 3 µM) | -0.0533 | -0.0609 | -0.0192 | -0.0512 | -0.0235 | -0.0542 | -0.0392 | 0.0044 | -0.0116 | -0.131 |
| COc1nnc2ccc(N3CCC(c4ccc(OCCN5CCN(C)C(=O)[C@H]5C)cc4)CC3)nn12 [AZD5153] + C[C@@H]1COCCN1C2=NC(=NC(=C2)C3(CC3)[S@](=N)(=O)C)C4=C5C=CNC5=NC=C4 [AZD6738] (first compound max 1 µM, 7x7, partner max 10 µM) | -0.0483 | -0.0048 | 0.0429 | 0.0091 | 0.0648 | 0.0016 | 0.0142 | -0.0266 | 0.0293 | -0.0621 |
| Cc1c2c(nn1C)CSCc1cc(n(C)n1)CSc1cc(c3ccccc3c1)OCCCc1c(C(=O)O)n(C)c3c-2c(Cl)ccc13 [AZD5991] + Cc1cc2ncnn2cc1Nc1ncc2c(n1)n(C1CCOCC1)c(=O)n2C [AZD7648] (first compound max 1 µM, 7x7, partner max 10 µM) | -0.0078 | -0.0453 | -0.0784 | -0.0378 | 0.0158 | -0.0115 | -0.016 | -0.0387 | -0.0159 | -0.0594 |
| Cn1cnc2c(F)c(Nc3ccc(Br)cc3Cl)c(C(=O)NOCCO)cc21 [Selumetinib] + CC(C)n1c(=O)n(C)c2cnc3cc(F)c(-c4ccc(OCCCN5CCCCC5)nc4)cc3c21 [AZD1390] (first compound max 10 µM, 7x7, partner max 0.3 µM) | -0.0146 | -0.0464 | -0.0257 | 0.0194 | -0.069 | -0.0157 | -0.0286 | 0.014 | -0.0293 | -0.0059 |
| COc1nnc2ccc(N3CCC(c4ccc(OCCN5CCN(C)C(=O)[C@H]5C)cc4)CC3)nn12 [AZD5153] + Cn1cnc2c(F)c(Nc3ccc(Br)cc3Cl)c(C(=O)NOCCO)cc21 [Selumetinib] (first compound max 1 µM, 7x7, partner max 10 µM) | 0.0163 | -0.014 | -0.0227 | 0.0261 | 0.0192 | 0.0517 | -0.0216 | 0.0032 | 0.0139 | 0.0023 |
| NC1(C(=O)N[C@@H](CCO)c2ccc(Cl)cc2)CCN(c2ncnc3[nH]ccc23)CC1 [Capivasertib] + CCN(CCO)CCCOc1ccc2c(Nc3cc(CC(=O)Nc4cccc(F)c4)[nH]n3)ncnc2c1 [AZD2811] (first compound max 10 µM, 7x7, partner max 1 µM) | -0.0264 | -0.0166 | -0.0265 | -0.0179 | -0.0481 | -0.0275 | 0.0113 | 0.0098 | -0.043 | -0.0697 |
